Tests used:
DU-145 = assay: Antiproliferative activity against human DU-145 cells assessed as reduction in cell viability after 48 hrs by MTT assay; format: functional, cell-based; details: DU-145, 48 h
A549 = assay: Antiproliferative activity against human A549 cells assessed as reduction in cell viability after 48 hrs by MTT assay; format: functional, cell-based; details: A549, 48 h
[1] = Inhibition of LPS-induced TNF-alpha expression in human U-937 cells preincubated for 1 hr followed by LPS addition and measured after 24 hrs by ELISA; format: functional, cell-based
[2] = Inhibition of Saccharomyces cerevisiae alpha-glucosidase using p-nitophenyl alpha […]D-glucoside incubated for 45 mins
L132 = assay: Cytotoxicity against human L132 cells assessed as reduction in cell viability after 48 hrs by MTT assay; format: cell-based; details: L132, 48 h
SiHa = assay: Antiproliferative activity against human SiHa cells assessed as reduction in cell viability after 48 hrs by MTT assay; format: functional, cell-based
MDA-MB-231 = assay: Antiproliferative activity against human MDA-MB-231 cells assessed as reduction in cell viability after 48 hrs by MTT assay; format: functional, cell-based; details: MDA-MB-231, 48 h
PC-3 = assay: Antiproliferative activity against human PC3 cells assessed as reduction in cell viability after 48 hrs by MTT assay; format: functional, cell-based; details: PC-3, 48 h
HT-29 = assay: Antiproliferative activity against human HT-29 cells assessed as reduction in cell viability after 48 hrs by MTT assay; format: functional, cell-based; details: HT-29, 48 h
[3] = Inhibition of LPS-induced IL-1beta expression in human U-937 cells preincubated for 1 hr followed by LPS addition and measured after 24 hrs by ELISA; format: functional, cell-based
Saccharomyces cerevisiae [4] = assay: Potency index, ratio of acarbose IC50 to test compound IC50 for inhibition of Saccharomyces cerevisiae alpha-glucosidase
Saccharomyces cerevisiae [5] = assay: Potency index, ratio of Myrrhanone-B IC50 to test compound IC50 for inhibition of Saccharomyces cerevisiae alpha-glucosidase
U-87 MG = assay: Antiproliferative activity against human U87 cells assessed as reduction in cell viability after 48 hrs by MTT assay; format: functional, cell-based, U-87MG ATCC

| SMILES | IC50 (DU-145) [µM] | IC50 (A549) [µM] | IC50 [1] [µM] | IC50 [2] [µM] | IC50 (L132) [µM] | IC50 (SiHa) [µM] | IC50 (MDA-MB-231) [µM] | IC50 (PC-3) [µM] | IC50 (HT-29) [µM] | IC50 [3] [µM] | Ratio IC50 (Saccharomyces cerevisiae [4]) | Ratio IC50 (Saccharomyces cerevisiae [5]) | IC50 (U-87 MG) [µM] |
| --- | --- | --- | --- | --- | --- | --- | --- | --- | --- | --- | --- | --- | --- |
| C/C(=C\CC/C(C)=C/CC[C@@H]1[C@@]2(C)CCC(=O)C(C)(C)[C@H]2CC[C@@]1(C)O)CC/C=C(\C)C(=O)O | > 150 | > 150 | 15.6 | 167 | > 150 | 96.7 | 90.5 | 40.7 | 56.6 | – | – | – | – |
| C/C(=C\CC/C(C)=C/CC[C@@H]1[C@@]2(C)CCC(=O)C(C)(C)[C@H]2CC[C@@]1(C)O)CC/C=C(\C)C(=O)OCc1cn(C[C@@H]2O[C@H](n3ccc(=O)[nH]c3=O)[C@H]3OC(C)(C)O[C@H]32)nn1 | > 150 | 15.3 | 8.1 | – | > 150 | – | > 150 | – | – | 14.1 | – | – | – |
| C/C(=C\CC/C(C)=C/CC[C@@H]1[C@@]2(C)CCC(=O)C(C)(C)[C@H]2CC[C@@]1(C)O)CC/C=C(\C)C(=O)OCc1cn(-c2ccccc2[N+](=O)[O-])nn1 | > 150 | > 150 | 9.05 | – | > 150 | – | – | – | – | 8.97 | 767 | 60.2 | – |
| COc1ccccc1-n1cc(COC(=O)/C(C)=C/CC/C(C)=C/CC/C(C)=C/CC[C@@H]2[C@@]3(C)CCC(=O)C(C)(C)[C@H]3CC[C@@]2(C)O)nn1 | > 150 | > 150 | 11.7 | – | > 150 | – | > 150 | – | – | 9.06 | – | – | – |
| C[C@]12C=CC(=O)C=C1CC[C@@H]1[C@@H]2[C@@H](O)C[C@@]2(C)[C@H]1CC[C@]2(O)C(=O)CO [PREDNISOLONE] | – | – | 0.64 | – | – | – | – | – | – | 0.44 | – | – | – |
| C/C(=C\CC/C(C)=C/CC[C@@H]1[C@@]2(C)CCC(=O)C(C)(C)[C@H]2CC[C@@]1(C)O)CC/C=C(\C)C(=O)OCc1cn(-c2ccc(F)c(Cl)c2)nn1 | > 150 | > 150 | 7.83 | 10.1 | > 150 | – | – | 22.9 | – | 15.8 | – | – | – |
| C#CCOC(=O)/C(C)=C/CC/C(C)=C/CC/C(C)=C/CC[C@@H]1[C@@]2(C)CCC(=O)C(C)(C)[C@H]2CC[C@@]1(C)O | 46.1 | 45.1 | – | – | – | – | 114 | 18.9 | 27.4 | – | – | – | > 150 |
| C/C(=C\CC/C(C)=C/CC[C@@H]1[C@@]2(C)CCC(=O)C(C)(C)[C@H]2CC[C@@]1(C)O)CC/C=C(\C)C(=O)OCc1cn(-c2cccc(C)c2)nn1 | 137 | > 150 | – | 13.4 | > 150 | > 150 | – | – | – | – | – | – | – |
| C/C(=C\CC/C(C)=C/CC[C@@H]1[C@@]2(C)CCC(=O)C(C)(C)[C@H]2CC[C@@]1(C)O)CC/C=C(\C)C(=O)OCc1cn(-c2ccc(Cl)cc2)nn1 | > 150 | > 150 | 9.12 | – | > 150 | – | – | – | – | 66.6 | – | – | – |
| C/C(=C\CC/C(C)=C/CC[C@@H]1[C@@]2(C)CCC(=O)C(C)(C)[C@H]2CC[C@@]1(C)O)CC/C=C(\C)C(=O)OCc1cn(-c2ccccc2Cl)nn1 | > 150 | > 150 | 9.58 | 106 | > 150 | – | > 150 | – | – | 8.95 | – | – | – |
| C/C(=C\CC/C(C)=C/CC[C@@H]1[C@@]2(C)CCC(=O)C(C)(C)[C@H]2CC[C@@]1(C)O)CC/C=C(\C)C(=O)OCc1cn(-c2cccc(Cl)c2)nn1 | 103 | 147 | – | 7.91 | 94.2 | 111 | 103 | – | – | – | – | – | 91.8 |
| C/C(=C\CC/C(C)=C/CC[C@@H]1[C@@]2(C)CCC(=O)C(C)(C)[C@H]2CC[C@@]1(C)O)CC/C=C(\C)C(=O)OCc1cn(-c2ccc([N+](=O)[O-])cc2)nn1 | > 150 | > 150 | – | – | > 150 | – | – | – | – | – | 767 | 60.2 | – |
| C/C(=C\CC/C(C)=C/CC[C@@H]1[C@@]2(C)CCC(=O)C(C)(C)[C@H]2CC[C@@]1(C)O)CC/C=C(\C)C(=O)OCc1cn(-c2ccccc2)nn1 | 95.5 | > 150 | 9.3 | 43.5 | > 150 | 149 | > 150 | – | – | 9.87 | – | – | – |
| C/C(=C\CC/C(C)=C/CC[C@@H]1[C@@]2(C)CCC(=O)C(C)(C)[C@H]2CC[C@@]1(C)O)CC/C=C(\C)C(=O)OCc1cn(-c2cccc([N+](=O)[O-])c2)nn1 | > 150 | > 150 | – | 2.77 | – | – | – | 24.8 | – | – | – | – | 134 |
| C/C(=C\CC/C(C)=C/CC[C@@H]1[C@@]2(C)CCC(=O)C(C)(C)[C@H]2CC[C@@]1(C)O)CC/C=C(\C)C(=O)OCc1cn([C@@H]2C[C@@H](n3cc(C)c(=O)[nH]c3=O)O[C@H]2CO)nn1 | 13.8 | 35 | 8.34 | – | 115 | 41.7 | 38 | 18.9 | 55.6 | 9.12 | – | – | > 150 |
| C/C(=C\CC/C(C)=C/CC[C@@H]1[C@@]2(C)CCC(=O)C(C)(C)[C@H]2CC[C@@]1(C)O)CC/C=C(\C)C(=O)OCc1cn(-c2cccc(F)c2)nn1 | > 150 | 124 | – | 4.12 | – | > 150 | 144 | – | – | – | – | – | > 150 |
| COc1cccc2c1C(=O)c1c(O)c3c(c(O)c1C2=O)C[C@@](O)(C(=O)CO)C[C@@H]3O[C@H]1C[C@H](N)[C@H](O)[C@H](C)O1 [DOXORUBICIN] | 3.11 | 2.58 | – | – | 0.01 | 0.311 | 0.034 | 5.05 | 0.082 | – | – | – | 5.94 |

Reference: ChEMBL document CHEMBL4680137, “Synthesis and biological evaluation of some novel 1,2,3-triazole hybrids of myrrhanone B isolated from Commiphora mukul gum resin: Identification of potent antiproliferative leads active against prostate cancer cells (PC-3)” (Eur J Med Chem, 2020)
